In general, IC50 refers to the point on the concentration scale where inhibition reaches its midpoint. A word on the inhibition: it is the percentage by which the read-out fell short of the control. Broadly, the inhibition in vivo is the relative decrease from the control value, in per cent.

SMILES strings stand for the structures.

Experimental findings from ChEMBL document CHEMBL3739422, “Hydroxytyrosol-Derived Compounds: A Basis for the Creation of New Pharmacological Agents for Cancer Prevention and Therapy” (J Med Chem, 2015) are described below.

Data set [1] concerns Platelet. Description: Inhibition of collagen-induced platelet aggregation in human whole blood preincubated for 10 mins prior to collagen addition measured after 10 mins by aggregometric analysis. It is filed as functional, tissue-based.
A short description of data set [2]: Cytotoxicity against human Caco2/TC7 cells assessed as growth inhibition at 5 uM after 24 hrs by WST-1 assay. It is filed as functional. Particulars: Caco-2, 24 h, read-out: GI. (Tetrazolium dyes change colour on reduction, which living cells bring about.)
Another data set concerns HeLa. Description: Antioxidant activity in human HeLa cells assessed as reduction in iron-reactive oxidative stress preincubated for 4 hrs prior to FeSO4 addition measured after 1 hr by TBARS assay. It is filed as functional. More on the design: scale not given: the % may be the effect or the level left.
The nature of data set [3]: Cytotoxicity against human Caco2/TC7 cells assessed as growth inhibition after 24 hrs by WST-1 assay. It is filed as functional, cell-based. The note with it: Caco-2, 24 h.
In data set [4] the test system is Rattus norvegicus. Description: Inhibition of collagen-induced platelet aggregation in po dosed Wistar rat administered for 7 days measured after 1 hr post last dose by aggregometric analysis. It is filed as functional. Particulars: read-out: ID50 (the source's name).
Data set [5] relates to Rattus norvegicus. Description: Inhibition of A23187-induced TXA2 synthesis in Wistar rat at 1 to 100 mg/kg, po qd administered for 7 days measured after 1 hr post last dose by enzyme immunoassay. It is filed as functional.
Data set [6] has as its system Rattus norvegicus. Description: Induction of NO production in Wistar rat at 1 to 100 mg/kg, po qd administered for 7 days measured after 1 hr post last dose by enzyme immuno assay. It is filed as functional.
The test system of another data set is A549. Description: Cytotoxicity against human A549 cells assessed as cell viability after 48 hrs by MTT assay. It is filed as functional, cell-based. The note with it: A549, 48 h.
For another data set, the system named is MRC5. Description: Cytotoxicity against human MRC5 cells assessed as cell viability after 48 hrs by MTT assay. It is filed as cell-based. The note with it: MRC5, 48 h.
Data set [7] in a line: Selectivity ratio of IC50 for human MRC5 cells to IC50 for human A549 cells. The note with it: MRC5 cells versus A549 cells, read-out: Ratio IC50. It is filed as ADME, cell-based.
Data set [8] relates to Rattus norvegicus. Description: Induction of NO production in Wistar rat at 1 to 10 mg/kg, po qd administered for 7 days measured after 1 hr post last dose by enzyme immuno assay. It is filed as functional.
Data set [9] concerns Platelet. Description: Inhibition of collagen-induced platelet aggregation in human platelet rich plasma preincubated for 10 mins. It is filed as functional, cell-free.
Data set [10] concerns Platelet. Description: Inhibition of ADP-induced platelet aggregation in human platelet rich plasma preincubated for 10 mins. It is filed as functional, cell-free.
The subject of data set [11] is THP-1. Description: Inhibition of LPS-induced TNFalpha production in human THP1 cells at 0.5 uM after 3 hrs by microplate reader analysis. It is filed as functional. The note with it: THP-1, 3 h.
Data set [12] deals with THP-1. Description: Inhibition of LPS-induced TNFalpha production in human THP1 cells at 10 uM after 3 hrs by microplate reader analysis. It is filed as functional. The note with it: THP-1, 3 h.
For data set [13], the system named is THP-1. Description: Inhibition of LPS-induced TNFalpha production in human THP1 cells at 100 uM after 3 hrs by microplate reader analysis. It is filed as functional. The note with it: THP-1, 3 h.
Data set [14] deals with Rattus norvegicus. Description: Inhibition of collagen-induced platelet aggregation in Wistar rat at 20 mg/kg, po qd administered for 7 days measured after 1 hr post last dose by aggregometric analysis. It is filed as functional.
Data set [15] has as its system Rattus norvegicus. Description: Inhibition of A23187-induced TXA2 synthesis in Wistar rat at 20 mg/kg, po qd administered for 7 days measured after 1 hr post last dose by enzyme immuno assay. It is filed as functional.
Data set [16] relates to Rattus norvegicus. Description: Inhibition of plasma lipid peroxide in Wistar rat at 20 mg/kg, po qd administered for 7 days measured after 1 hr post last dose by spectrophotometric analysis. It is filed as functional.

Turning to `CC(=O)OCCc1ccc(O)c(O)c1`, the figures for the IC50 (with Platelet [1]; in data set [3]) were 10 µM and 32 µM, respectively. In addition, the inhibition of growth at 5 µM in data set [2] was determined as 20%. Also, the Activity in the data set with HeLa is 36%. For the same compound, the ED50 in the data set with Rattus norvegicus [4] was 16.1 mg/kg/day. The “inhibition (INH)” value with Rattus norvegicus [5] was 37%; in the data set with Rattus norvegicus [6], 66%.
Consider `CCCCCCCCCCCCOCCc1ccc(O)c(O)c1`, for which the IC50 with A549 was found to be 20 µM; with MRC5, 49 µM. In data set [7], the selectivity ratio is 2.46.
In the case of `CC(=O)Oc1ccccc1C(=O)O` [ASPIRIN], the ED50 in the data set on Rattus norvegicus [4] stood at 2.42 mg/kg/day. The “inhibition (INH)” value with Rattus norvegicus [8] worked out at 64%.
With `OCCc1ccc(O)c(O)c1` [HYDROXYTYROSOL], the 50% inhibitory concentration (IC50) came out at 67 µM in the data set with Platelet [9] and 27 µM in the data set with Platelet [10]. Also, the ED50 in the data set on Rattus norvegicus [4] turned out to be 48.2 mg/kg/day. Further, the “inhibition (INH)” value with Rattus norvegicus [5] is on record as 30%; in the data set on Rattus norvegicus [6], 34.2%.
Turning to `Oc1cc2c(cc1O)C(c1ccccc1)OCC2` (stereo not given), the inhibition at 0.5 µM with THP-1 [11] was determined as 30%. Besides, in the data set with THP-1 [12], the inhibition at 10 µM came to 60%. Besides, in the data set on THP-1 [13], the inhibition at 100 µM was 80%.
Take `CCCCCCOCCc1ccc(O)c(O)c1`: half-maximal inhibition with Platelet [1] (IC50) required 0.1 µM. Also, the inhibition in vivo at 20 mg/kg was 58.7% with Rattus norvegicus [14], 58.7% in the data set on Rattus norvegicus [15] and 84.7% in the data set with Rattus norvegicus [16].
Turning to `CCCCCCCC/C=C\CCCCCCCC(=O)OCCc1ccc(O)c(O)c1`, the Activity with HeLa came to 38%.
